Source: EPA's ToxRefDB 2

How the values were obtained:
rat [1] = conditions: Subchronic oral toxicity in rodents, sprague dawley, Gavage/Intubation, dose end: 90 day, group: systemic
dog [2] = conditions: Sub-acute repeat dose toxicity, beagle, Oral, Gavage/Intubation, dose end: 5 day, group: systemic
rat [3] = conditions: Fertility (Segment I), sprague dawley, Oral, Gavage/Intubation, dose end: 1 generation, group: parental
rat [4] = conditions: Prenatal developmental toxicity study; sprague dawley; Oral; Gavage/Intubation; dose end: 18 GD; group: maternal; systemic / in life observation / body weight / body weight + systemic / in life observation / body weight / body weight gain + systemic / in…
rat [5] = conditions: Fertility (Segment I), sprague dawley, Oral, Gavage/Intubation, dose end: 1 generation
rabbit [6] = conditions: Prenatal developmental toxicity study, new zealand white, Oral, Gavage/Intubation, dose end: 19 GD, group: maternal
rat [7] = conditions: Sub-acute repeat dose toxicity, sprague dawley, Oral, Gavage/Intubation, dose end: 21 day, group: systemic
dog [8] = conditions: Subchronic oral toxicity in nonrodent, beagle, Gavage/Intubation, dose end: 90 day, group: systemic, systemic / in life observation / clinical signs / emesis + systemic / in life observation / clinical signs / erythema + systemic / in life …
dog [9] = conditions: Sub-acute repeat dose toxicity, beagle, Oral, Gavage/Intubation, dose end: 15 day, group: systemic
rabbit [10] = conditions: Sub-acute repeat dose toxicity, new zealand white, Oral, Gavage/Intubation, dose end: 5 day, group: systemic
rat [11] = conditions: Subchronic oral toxicity in rodents, fischer, Feed, dose end: 13 week, group: systemic
rabbit [12] = conditions: Prenatal developmental toxicity study, new zealand white, Oral, Gavage/Intubation, dose end: 18 GD, group: maternal
mouse = conditions: Subchronic oral toxicity in rodents, b6c3f1, Feed, dose end: 13 week, group: systemic, systemic / organ weight / liver / absolute + systemic / organ weight / liver / relative to body weight + systemic / pathology microscopic / …
rat [13] = conditions: Prenatal developmental toxicity study, wistar, Oral, Water, dose end: 19 GD
rat [14] = conditions: Prenatal developmental toxicity study, fischer, Oral, Gavage/Intubation, dose end: 15 GD
rat [15] = conditions: Multigenerational reproductive toxicity study, wistar, Oral, Water, dose end: 1 generation
rat [16] = conditions: Sub-acute repeat dose toxicity, sprague dawley, Oral, Gavage/Intubation, dose end: 36 day, group: systemic
rabbit [17] = conditions: Prenatal developmental toxicity study, Oral, Gavage/Intubation, dose end: 19 GD
[18] = systemic / clinical chemistry / [other] / [other] + systemic / clinical chemistry / aspartate aminotransferase (ast/sgot) / aspartate …
[19] = systemic / organ weight / liver / absolute + systemic / in life observation / clinical signs / salivation
[20] = systemic / in life observation / body weight / body weight + systemic / in life observation / clinical signs / emesis + systemic / in life …
[21] = systemic / in life observation / clinical signs / salivation + systemic / in life observation / clinical signs / emesis
[22] = systemic / in life observation / body weight / body weight + systemic / in life observation / clinical signs / altered breathing rate + …
[23] = group: maternal, reproductive / reproductive performance / estrous cycle / length
[24] = group: parental, systemic / in life observation / body weight / body weight + systemic / in life observation / clinical signs / [other] + systemic / in life …
[25] = group: parental, systemic / in life observation / clinical signs / altered breathing rate + systemic / in life observation / clinical signs / compulsive …
[26] = systemic / in life observation / clinical signs / dialated pupils + systemic / in life observation / food consumption / food consumption
[27] = systemic / clinical chemistry / alanine aminotransferase (alt/sgpt) / alanine aminotransferase (alt/sgpt) + systemic / clinical chemistry / …
[28] = systemic / organ weight / liver / relative to body weight
[29] = systemic / clinical chemistry / alanine aminotransferase (alt/sgpt) / alanine aminotransferase (alt/sgpt) + systemic / hematology / platelet…
[30] = systemic / in life observation / body weight / body weight + systemic / clinical chemistry / alanine aminotransferase (alt/sgpt) / alanine …
[31] = systemic / in life observation / body weight / body weight gain + systemic / in life observation / clinical signs / [other] + systemic / in …
[32] = systemic / in life observation / clinical signs / abnormal feces + systemic / in life observation / clinical signs / altered breathing rate
[33] = systemic / clinical chemistry / cholesterol / cholesterol
[34] = reproductive / reproductive performance / aborted / aborted + systemic / in life observation / mortality / mortality
[35] = group: developmental, developmental / developmental malformation / bone / incomplete ossification + developmental / developmental malformation / bone / wavy
[36] = group: maternal, reproductive / reproductive performance / pregnancy / pregnancy + systemic / in life observation / body weight / body weight + systemic / in…
[37] = group: developmental, developmental / developmental malformation / bone / delayed ossification
[38] = group: developmental, developmental / developmental malformation / bone / delayed ossification + developmental / developmental malformation / bone / supernumerary…
[39] = group: maternal, systemic / in life observation / clinical signs / ocular discharge + systemic / in life observation / clinical signs / red or crusty …
[40] = group: offspring, developmental / developmental landmark / eye opening / eye opening + developmental / developmental landmark / incisor eruption / incisor …
[41] = group: offspring, developmental / developmental malformation / bone / kinked
[42] = group: parental, systemic / in life observation / body weight / body weight + systemic / in life observation / body weight / body weight gain + systemic / in…
[43] = group: reproductive, reproductive / reproductive performance / implantations / implantations + reproductive / reproductive performance / resorptions / …
[44] = systemic / in life observation / body weight / body weight gain + systemic / in life observation / body weight / offspring (pup) weight + …
[45] = group: developmental, systemic / in life observation / body weight / fetal weight
[46] = group: maternal, systemic / in life observation / body weight / body weight + systemic / in life observation / food consumption / food consumption + systemic…

## CNCc1cc(F)ccc1Oc1ccc(Cl)c(Cl)c1
Rat [1]; [18]
  LOAEL: > 150 mg/kg/day
  NOAEL: ≥ 150 mg/kg/day
Rat [1]; [19]
  LEL: 10 mg/kg/day
  NEL: < 10 mg/kg/day
Dog [2]; [20]
  LOAEL: > 10 mg/kg/day
  NOAEL: ≥ 10 mg/kg/day
Dog [2]; [21]
  LEL: 3 mg/kg/day
  NEL: < 3 mg/kg/day
Rat [3]; [22]
  LOAEL: > 100 mg/kg/day
  NEL: 10 mg/kg/day
  NOAEL: ≥ 100 mg/kg/day
Rat [3]; systemic / in life observation / clinical signs / salivation + systemic / in life observation / food consumption / food consumption
  LEL: 30 mg/kg/day
Rat [4]
  LEL: 25 mg/kg/day
  LOAEL: > 50 mg/kg/day
  NOAEL: ≥ 50 mg/kg/day
Rat [5]; [23]
  LEL: 30 mg/kg/day
  LOAEL: > 60 mg/kg/day
  NEL: 10 mg/kg/day
  NOAEL: ≥ 60 mg/kg/day
Rat [5]; [24]
  LOAEL: > 60 mg/kg/day
  NOAEL: ≥ 60 mg/kg/day
Rat [5]; [25]
  LEL: 10 mg/kg/day
  NEL: < 10 mg/kg/day
Rabbit [6]; systemic / in life observation / clinical signs / dialated pupils
  LEL: 10 mg/kg/day
Rabbit [6]; [26]
  LOAEL: > 30 mg/kg/day
  NOAEL: ≥ 30 mg/kg/day
Rat [7]; [27]
  LOAEL: > 300 mg/kg/day
  NOAEL: ≥ 300 mg/kg/day
Rat [7]; [28]
  LEL: 10 mg/kg/day
  NEL: < 10 mg/kg/day
Dog [8]
  LEL: 2 mg/kg/day
  LOAEL: > 30 mg/kg/day
  NEL: < 2 mg/kg/day
  NOAEL: ≥ 30 mg/kg/day
Dog [9]; [29]
  LOAEL: > 60 mg/kg/day
  NOAEL: ≥ 60 mg/kg/day
Dog [9]; [30]
  LEL: 3 mg/kg/day
  NEL: < 3 mg/kg/day
Rabbit [10]; [31]
  LOAEL: > 100 mg/kg/day
  NOAEL: ≥ 100 mg/kg/day
Rabbit [10]; [32]
  LEL: 10 mg/kg/day
  NEL: < 10 mg/kg/day

## CCCCC(CC)C(=O)O (stereo not given) [2-Ethylhexanoic acid]
Rat [11]; [33]
  LEL: 61 mg/kg/day
  NEL: < 61 mg/kg/day
Rat [11]; systemic / organ weight / liver / relative to body weight + systemic / pathology microscopic / liver / hypertrophy
  LOAEL: 303 mg/kg/day
Rat [11]; systemic / organ weight / liver / relative to body weight + systemic / pathology microscopic / liver / hypertrophy + systemic / clinical …
  NOAEL: 61 mg/kg/day
Rabbit [12]; [34]
  LEL: 125 mg/kg/day
  LOAEL: 125 mg/kg/day
Rabbit [12]; reproductive / reproductive performance / aborted / aborted + systemic / in life observation / mortality / mortality + systemic / in life …
  NOAEL: 25 mg/kg/day
mouse
  LEL: 885 mg/kg/day
  LOAEL: 885 mg/kg/day
  NEL: 180 mg/kg/day
  NOAEL: 180 mg/kg/day
Rat [13]; [35]
  LEL: 100 mg/kg/day
  LOAEL: 100 mg/kg/day
  NEL: < 100 mg/kg/day
  NOAEL: < 100 mg/kg/day
Rat [13]; group: maternal, reproductive / reproductive performance / pregnancy / pregnancy
  LEL: 300 mg/kg/day
Rat [13]; [36]
  LOAEL: > 600 mg/kg/day
  NEL: 100 mg/kg/day
  NOAEL: ≥ 600 mg/kg/day
Rat [14]; [37]
  LEL: 250 mg/kg/day
  LOAEL: 250 mg/kg/day
Rat [14]; [38]
  NEL: 100 mg/kg/day
  NOAEL: 100 mg/kg/day
Rat [14]; group: maternal, reproductive / reproductive performance / postimplantation loss / postimplantation loss + reproductive / reproductive performance / …
  NEL: 250 mg/kg/day
Rat [14]; [39]
  LEL: 500 mg/kg/day
  LOAEL: 500 mg/kg/day
  NOAEL: 250 mg/kg/day
Rat [15]; [40]
  LOAEL: > 600 mg/kg/day
  NOAEL: ≥ 600 mg/kg/day
Rat [15]; [41]
  LEL: 100 mg/kg/day
  NEL: < 100 mg/kg/day
Rat [15]; [42]
  LOAEL: > 600 mg/kg/day
  NEL: 100 mg/kg/day
  NOAEL: ≥ 600 mg/kg/day
Rat [15]; group: parental, systemic / pathology microscopic / uterus / dilatation + systemic / pathology microscopic / vagina / hyperplasia + systemic / pathology …
  LEL: 300 mg/kg/day
Rat [15]; [43]
  LEL: 600 mg/kg/day
  LOAEL: > 600 mg/kg/day
  NOAEL: ≥ 600 mg/kg/day

## COCCOC[C@H](CC1(C(=O)NC2CCC(C(=O)O)CC2)CCCC1)C(=O)Oc1ccc2c(c1)CCC2 (stereo not given in full) [Candoxatril]
Rat [16]; [44]
  LOAEL: > 1200 mg/kg/day
  NOAEL: ≥ 1200 mg/kg/day
Rat [16]; systemic / in life observation / clinical signs / hyperactivity
  NEL: < 120 mg/kg/day
Rabbit [17]; [45]
  LEL: 1000 mg/kg/day
  LOAEL: > 1000 mg/kg/day
  NOAEL: ≥ 1000 mg/kg/day
Rabbit [17]; [46]
  LEL: 1000 mg/kg/day
  LOAEL: > 1000 mg/kg/day
  NEL: 250 mg/kg/day
  NOAEL: ≥ 1000 mg/kg/day
